Assay results: patent US20130287688A1, “NOVEL COMPOSITIONS AND USES OF ANTI-HYPERTENSION AGENTS FOR CANCER THERAPY” (XTUIT PHARMACEUTICALS, INC., priority 2010, published 2013)

Assays:
[1] = Mean arterial blood pressure (MABP) in mice
Protocol: In the following Examples, 20 mg/kg/day dose was used (but it by no means limits the use of other doses in the methods described herein).

[2] = system: HSTS26T tumors; experiment: Distribution of intratumorally injected 100 nm nanoparticles; type: in vivo, mice; settings: 100 nm diameter nanoparticles
Source text: (§1) Based on the previous studies on the tumor interstitial matrix (Pluen A, et al. (2001) Proc Natl Acad Sci USA 98:4628-4633 and Brown E, et al. (2003) Nat Med 9:796-800), the inventors then sought to determine if a decrease in collagen content by Losartan can improve the intratumoral distribution of nanoparticles. The inventors therefore measured the intratumoral distribution of fluorescent polystyrene nanoparticles (100 nm diameter) in three different tumor types—HSTS26T, Mu89, and L3.6 pl—after an i.t. or i.v. injection. In mice injected i.t. with nanoparticles, losartan improved nanoparticle accumulation and penetration in the tumor center (FIG. 8A; HSTS26T p<0.001, Mu89 p<0.001). Conversely, there was little or no nanoparticle accumulation in the center of control tumors. Most of the injected nanoparticles in control tumors were found in the tumor margin and around the needle insertion point (FIG. 8A). The inventors also determined the effects of losartan on the intratumoral distribution of oncolytic HSV.
(§2) Nanoparticles and oncolytic HSV were infused with a syringe pump (Harvard Apparatus Standard Pump 22, Holliston, Mass.) at a flow rate of 4 μl/min. The inventors injected 10 μl of HSV (2.5×10^5 t.u.) expressing the green fluorescent protein (GFP), or 10 μl of fluorescent nanoparticles (diameter of […]; concentration of 1×10^13 nanoparticles/ml). […]

[3] = system: Mu89 tumors; experiment: as above; type: in vivo, mice; settings: 100 nm diameter nanoparticles
Source text: as §1, §2

[4] = system: L3.6PL orthotopic pancreatic tumors; experiment: DOXIL treatment and tumor growth delay; type: in vivo, SCID mice
Source text: One week after the DOXIL injection, the tumors were resected and measured.

[5] = system: HSTS26T tumors; experiment: Protein levels in homogenized tumors (ELISA); type: in vivo, mice
Source text: Tumors were excised after two weeks of treatment, homogenized and analyzed for total and activated TGF-β1 levels by ELISA.

[6] = system: E0771 breast tumors; experiment: Breast tumor growth and survival studies; type: in vivo, mice
Protocol: (§3) Breast tumor growth and survival studies: Mice bearing orthotopic E0771 or 4T1 breast tumors were split into treatment groups, time-matched for time after implantation and size-matched for tumor volume at this time (110-111 mm^3 in E0771, in 4T1). […] The primary tumors were then measured every 2 days, beginning on day 0, using calipers. Tumor growth was quantified using the time for each to reach double its initial volume Animal survival was quantified based on time of death after initiation of treatment or time to reach excessive tumor burden (>1000 mm^3).

[7] = system: HSTS26T tumors; experiment: Second harmonic generation (SHG) imaging of fibrillar collagen in dorsal skin fold chamber tumors; type: in vivo, SCID mice; settings: for decrease in SHG levels (collagen): end of 15 days
Protocol: Cozaar (losartan potassium) tablets were ground using a mortar and pestle. The powder was then dissolved in water to obtain a concentration of 2.5 mg/ml. The solution was then filtered and stored in a sterile container.
Second Harmonic Imaging (SHG) imaging was performed in dorsal chamber tumors with a custom-built multiphoton laser-scanning microscope (Brown E, et al. (2003) Nat Med 9:796-800). Polarized light from a Ti:Sapphire laser (Mai-Tai Broadband: Spectra-Physics, Mountain View, Calif.) was converted to circularly polarized light using a zero order quarter wave plate (Newport Corporation, Irvine, Calif.). An excitation wavelength of 810 nm and detected SHG signals at 405 nm was used. SCID mice bearing HSTS26T tumors in dorsal chambers were either treated with losartan (10, 20 or 60 mg/kg/day) or saline for the duration of the dose response experiment (15 days). Vascular markers were used to locate 4 regions of interest in each mouse and periodically returned to the same region of SHG imaging. SHG images were analyzed with a custom-built Matlab (The MathWorks, Inc., Natick, Mass.) code. The fraction of the region of interest (ROI) that was positive for the SHG signal was normalized to the amount of SHG signal obtained on day 1 of the dose response study (before initiation of losartan or saline treatment).

[8] = system: 4T1 breast tumors; experiment: Breast tumor growth and survival studies; type: in vivo, mice
Source text: In FIG. 35B, the quantification of tumor growth rates, based on the time to reach double the initial volume, is shown.
In FIG. 35C, the animal survival following the initiation of treatment is shown. […] Statistical tests were corrected for multiple comparisons using the Holm-Bonferroni method.
as §3

[9] = 15 mg/kg/day in drinking water, two weeks
[10] = agent given alone (losartan 40 mg/kg daily or doxorubicin 2 mg/kg every three days)
[11] = losartan in combination with doxorubicin

Compound: CCCCc1nc(Cl)c(CO)n1Cc1ccc(-c2ccccc2-c2nn[nH]n2)cc1 [losartan]
- reduction in mean arterial blood pressure (MABP) ([1]; 20 mg/kg/day, after 2 weeks): 10 mm Hg
- reduction in mean arterial blood pressure (MABP) ([1]; 60 mg/kg/day): 35 mm Hg
- increase in distribution of i.t.-injected nanoparticles [2]: 1.5 fold
- increase in distribution of i.t.-injected nanoparticles [3]: 4 fold
- mean tumor weight ([4]; agent alone (losartan 20 mg/kg/day or DOXIL 4 mg/kg i.v.), after 7 days): did not affect
- tumor size vs DOXIL alone ([4]; losartan 20 mg/kg/day combined with DOXIL 4 mg/kg i.v.): significantly smaller
- growth of pancreatic tumors or weight of treated mice ([4]; losartan alone): did not affect
- reduction of tumor sizes compared to DOXIL treatment alone ([4]; losartan combined with DOXIL): 50%
- reduction in TSP-1 [5, 9]: 3.5 fold
- reduction in active TGF-β1 [5, 9]: 4 fold
- reduction in collagen 1 [5, 9]: two fold reduction
- total TGF-β1 levels ([5]; homogenized tumors): did not affect
- tumor growth rate [6, 10]: no significant effect
- median survival ([6]; combination of losartan and doxorubicin, saline alone 12 days): 23.5 days
- survival ([6]; losartan alone): did not shorten survival
- tumor growth [6, 11]: significantly delayed
- intratumoral SHG signal intensity ([7]; 10 mg/kg/day i.p.): did not have a significant effect
- decrease in SHG levels (collagen) ([7]; 10 mg/kg/day i.p.): 20%
- intratumoral SHG signal intensity ([7]; 20 mg/kg/day i.p.): significantly reduced
- decrease in SHG levels (collagen) ([7]; 20 mg/kg/day i.p.): 33%
- intratumoral SHG signal intensity ([7]; 60 mg/kg/day i.p.): significantly reduced
- decrease in SHG levels (collagen) ([7]; 60 mg/kg/day i.p.): 67%
- tumor growth rate [8, 10]: no significant effect
- survival ([8]; combination of losartan and doxorubicin): improved survival
- tumor growth [8, 11]: significantly delayed
- survival ([8]; monotherapy): did not shorten survival
